Test system: p53 signaling pathway in MT373 tumors
Experiment: MT373 syngeneic sarcoma model: mouse p53 signaling pathway profiling panel
Assay type: in vivo

## CCn1c(C#CCNc2ccccc2)cc2cc(CNC3CCN(C)CC3)ccc21 [Compound 1, 1-Anilino-3-{1-ethyl-5-[(1-methyl-4-piperidylamino)methyl]-1H-indol-2-yl}-2-propyne]
75 mg/kg BIDx1, 8 h
  Apex1 fold increase or percent reduction vs vehicle control: 19.97 fold or %
  Atm fold increase or percent reduction vs vehicle control: 13.42 fold or %
  Atr fold increase or percent reduction vs vehicle control: 8.05 fold or %
  Bag1 fold increase or percent reduction vs vehicle control: 24.87 fold or %
  Bax fold increase or percent reduction vs vehicle control: 1.97 fold or %
  Bbc3 fold increase or percent reduction vs vehicle control: 2.97 fold or %
  Bcl2 fold increase or percent reduction vs vehicle control: 7.84 fold or %
  Bid fold increase or percent reduction vs vehicle control: 1.19 fold or %
  Birc5 fold increase or percent reduction vs vehicle control: 15.16 fold or %
  Brca1 fold increase or percent reduction vs vehicle control: 3.14 fold or %
  Brca2 fold increase or percent reduction vs vehicle control: 5.75 fold or %
  Btg2 fold increase or percent reduction vs vehicle control: 14.84 fold or %
  Casp2 fold increase or percent reduction vs vehicle control: 17.74 fold or %
  Ccnb1 fold increase or percent reduction vs vehicle control: 4.81 fold or %
  Ccne1 fold increase or percent reduction vs vehicle control: 12.14 fold or %
  Ccng1 fold increase or percent reduction vs vehicle control: 6.19 fold or %
  Ccnh fold increase or percent reduction vs vehicle control: 15.28 fold or %
  Cdc25a fold increase or percent reduction vs vehicle control: 15.20 fold or %
  Cdk1 fold increase or percent reduction vs vehicle control: 32.00 fold or %
  Cdk4 fold increase or percent reduction vs vehicle control: 37.50 fold or %
  Cdkn1a fold increase or percent reduction vs vehicle control: 7.14 fold or %
  Cdkn2a fold increase or percent reduction vs vehicle control: 31.09 fold or %
  Chek1 fold increase or percent reduction vs vehicle control: 19.58 fold or %
  Cradd fold increase or percent reduction vs vehicle control: 21.01 fold or %
  Cul9 fold increase or percent reduction vs vehicle control: 1.73 fold or %
  Dapk1 fold increase or percent reduction vs vehicle control: 1.37 fold or %
  Dnmt1 fold increase or percent reduction vs vehicle control: 1.16 fold or %
  E2f1 fold increase or percent reduction vs vehicle control: 1.05 fold or %
  E2f3 fold increase or percent reduction vs vehicle control: 21.77 fold or %
  Egfr fold increase or percent reduction vs vehicle control: 42.31 fold or %
  Egr1 fold increase or percent reduction vs vehicle control: 59.72 fold or %
  Ep300 fold increase or percent reduction vs vehicle control: 15.26 fold or %
  Ercc1 fold increase or percent reduction vs vehicle control: 20.74 fold or %
  Esr1 fold increase or percent reduction vs vehicle control: 1.22 fold or %
  Fadd fold increase or percent reduction vs vehicle control: 2.66 fold or %
  Fas fold increase or percent reduction vs vehicle control: 1.75 fold or %
  Fasl fold increase or percent reduction vs vehicle control: 1.24 fold or %
  Foxo3 fold increase or percent reduction vs vehicle control: 1.04 fold or %
  Gadd45a fold increase or percent reduction vs vehicle control: 25.34 fold or %
  Hif1a fold increase or percent reduction vs vehicle control: 1.26 fold or %
  Il6 fold increase or percent reduction vs vehicle control: 68.47 fold or %
  Jun fold increase or percent reduction vs vehicle control: 22.75 fold or %
  Kras fold increase or percent reduction vs vehicle control: 1.03 fold or %
  Lig4 fold increase or percent reduction vs vehicle control: 1.13 fold or %
  Mdm2 fold increase or percent reduction vs vehicle control: 5.35 fold or %
  Mdm4 fold increase or percent reduction vs vehicle control: 1.03 fold or %
  Mel1 fold increase or percent reduction vs vehicle control: 24.40 fold or %
  Mlh1 fold increase or percent reduction vs vehicle control: 12.48 fold or %
  Msh2 fold increase or percent reduction vs vehicle control: 31.49 fold or %
  Myod1 fold increase or percent reduction vs vehicle control: 4.56 fold or %
  Nf1 fold increase or percent reduction vs vehicle control: 31.85 fold or %
  Nfkb1 fold increase or percent reduction vs vehicle control: 11.36 fold or %
  Pcna fold increase or percent reduction vs vehicle control: 32.47 fold or %
  Pmaip1 fold increase or percent reduction vs vehicle control: 1.60 fold or %
  Ppm1d fold increase or percent reduction vs vehicle control: 1.48 fold or %
  Prc1 fold increase or percent reduction vs vehicle control: 1.28 fold or %
  Prkca fold increase or percent reduction vs vehicle control: 5.77 fold or %
  Pten fold increase or percent reduction vs vehicle control: 0.35 fold or %
  Pttg1 fold increase or percent reduction vs vehicle control: 1.04 fold or %
  Rb1 fold increase or percent reduction vs vehicle control: 16.87 fold or %
  Rela fold increase or percent reduction vs vehicle control: 1.12 fold or %
  Rprm fold increase or percent reduction vs vehicle control: 3.08 fold or %
  Serpinb5 fold increase or percent reduction vs vehicle control: 3.96 fold or %
  Sesn2 fold increase or percent reduction vs vehicle control: 3.24 fold or %
  Sfn fold increase or percent reduction vs vehicle control: 1.12 fold or %
  Sirt1 fold increase or percent reduction vs vehicle control: 1.09 fold or %
  Stat1 fold increase or percent reduction vs vehicle control: 1.35 fold or %
  Tnf fold increase or percent reduction vs vehicle control: 1.85 fold or %
  Traf1 fold increase or percent reduction vs vehicle control: 1.23 fold or %
  Trp53bp2 fold increase or percent reduction vs vehicle control: 12.87 fold or %
  Trp53 fold increase or percent reduction vs vehicle control: 1.13 fold or %
75 mg/kg BIDx1, 24 h
  Apex1 fold increase or percent reduction vs vehicle control: 30.49 fold or %
  Atm fold increase or percent reduction vs vehicle control: 23.68 fold or %
  Atr fold increase or percent reduction vs vehicle control: 10.08 fold or %
  Bag1 fold increase or percent reduction vs vehicle control: 25.05 fold or %
  Bax fold increase or percent reduction vs vehicle control: 1.60 fold or %
  Bbc3 fold increase or percent reduction vs vehicle control: 1.80 fold or %
  Bcl2 fold increase or percent reduction vs vehicle control: 30.58 fold or %
  Bid fold increase or percent reduction vs vehicle control: 1.04 fold or %
  Birc5 fold increase or percent reduction vs vehicle control: 45.92 fold or %
  Brca1 fold increase or percent reduction vs vehicle control: 42.43 fold or %
  Brca2 fold increase or percent reduction vs vehicle control: 36.40 fold or %
  Btg2 fold increase or percent reduction vs vehicle control: 31.06 fold or %
